From patent US3995061A, “Pharmaceutical composition and method of using the same” (Chugai Seiyaku Kabushiki Kaisha, priority 1974, dated 1976)
“Also recorded” adds a separate entry of the source.

Columns and labels:
[1] = Acute toxicity, rat; conditions: in vivo, male
Description: (§1) Acute toxicity of the ascochlorin derivatives was observed by the use of Wister-Imamichi strain male rats weighing 230 ± 30 g and ddY strain male and female mice (5 weeks old) weighing 20 ±3 g which were divided into groups of 10 members each. Japanese native male rabbits weighing 2 kg ± 300 g which were divided into groups of five members each were also used. The test animals were orally or intraperitoneally administered with a different ascochlorin derivative as a suspension in 5% gum arabic aqueous solution, and the toxicity was compared with that of control in which ascochlorin was used.

[2] = Japanese Patent No. 585,252 and U.S. Pat. No. 3,546,073; cited from earlier work
[3] = Toxicity by continuous administration for 10 days (body weight); type: in vivo, Wister-Imamichi strain male rats; conditions: rat, 10 mg/head oral once a day
Description: Wister-Imamichi strain male rats weighing 230 ± 30 g were divided into four groups of 10 members each, 3 groups of which were orally administered with 4-O-methylascochlorin in a dose of 10 mg/head, 4-O-methylascochlorin in 20 mg/head and ascochlorin in 10 mg/head, respectively, as a suspension in 2% gum arabic aqueous solution once a day for 10 days. The remaining group was administered with 2% gum arabic aqueous solution, the dose and way of administration being identical to those disclosed above. The increase in body weight of the rats of each group was observed every day during the administration. The results are shown in the graph of FIG. 1.

[4] = especially noticeable when continuously administered; cited from earlier work
[5] = test system: Serum Lipid; test: Hypolipidemic activity: change in level of serum lipid, 30 days, high-fat feed; type: in vivo, Wister strain rats; conditions: rat
[6] = test system: Lipid in liver and aorta; test: Hypolipidemic activity: change of lipid level in organs and aorta abdominalis, 30 days, high-fat feed; type: in vivo, Wister strain rats; conditions: rat, 10.0 mg/kg oral
Description: Wister strain rats weighing 150 ± 20 g were divided into groups of 10 members each and bred with high-fat feed, the same as that used in Example 1. The rats were orally administered ascochlorin, 4-O-methylascochlorin or ethyl-α-(p-chlorophenoxy) isobutylate in a predetermined dose every morning for 30 days. Six hours after the last administration, liver and aorta of each rat were taken out and lipid level in the organs of each of the rats were determined. Lipid present in the liver and aorta was extracted with methanol-chloroform (1:1) by allowing it to stand overnight and the extract was assayed as to lipid level.

[7] = ascochlorin, background statement; cited from earlier work
[8] = Acute toxicity, mouse; conditions: in vivo
Description: as §1

[9] = test system: blood platelet; test: Aggregation inhibition activity of blood platelet (ADP-induced, platelet rich plasma of orally dosed rats); type: in vivo, Wister-Imamich strain male rats; conditions: rat, 20 mg/kg oral, 6 hours; adenosine-5'-diphosphate 10^-5 M in platelet rich plasma
Description: In this Example Wister-Imamich strain male rats weighing 230 ± 30 g which had been bred with the use of a commercial chow, CLEA CE-2 were used.
The rats were divided into groups of five members each, and orally administered with a different ascochlorin derivative as a suspension in 2% gum arabic aqueous solution in a dose of 20 mg/kg.body weight. Six hours after the administration, the blood of each rat was sampled from the heart and after the addition of citric acid, the blood sample was centrifuged at 1,500 r.p.m. for 10 minutes to obtain platelet rich plasma. The anti-aggregation effect when the concentration of adenosine-5'-diphosphatein the platelet rich plasma is ultimately 10^^-5 M is shown in Table II.
As positive controls, ascochlorin, ethyl-α-(p-chlorophenoxy) isobutylate and acetyl salicyclic acid were used. The aggregation inhibition ratio was evaluated in percent by comparing the increase of transmission rate caused by the addition of adenosin-5'-diphosphate to platelet rich plasma of the control group (no medication) with that caused on the groups administered with an ascochlorin derivative which is calculated for 100.

[10] = Toxicity by continuous administration for 30 days (body weight, deaths); type: in vivo, Wister strain male rats; conditions: rat, 50 mg/kg oral once a day
Description: Wister strain male rats weighing 150 ± 20 g were divided into groups of 10 members each, and each group was orally administered with 4-O-methylascochlorin as a suspension in 2% gum arabic aqueous solution in a predetermined dose once a day for 30 days, and the increase in body weight thereof was observed each day that the administration continued. As controls, ascochlorin (50 mg/kg/day) and ethyl-α-(p-chlorophenoxy) isobutylate (500 mg/kg/day) were used. The results are shown in the graph in FIG. 2.

[11] = test system: Cholesterol in serum; test: Serum cholesterol lowering activity in rats on high-fat feed, single oral dose; type: in vivo, Wister-Imamich strain male rats; conditions: rat, 75 mg/kg oral, 6 hours after administration
Description: The cholesterol lowering activity of the ascochlorin derivatives of this invention was observed by the use of Wister-Imamich strain male rats weighing 230 ± 30 g which had been bred with the use of high-fat feed comprising 1000 g of powdery chow CLEA CE-2 (sold by NIHON CLEA KABUSHIKI KAISHA) admixed with 10 g of cholesterol, 95 g of hydrogenated coconut oil, 2 g of cholic acid, 150 g of milk casein and 671 g of sucrose.
The rats were divided into groups of five members each, and orally administered with a different ascochlorin derivative as a suspension in gum arabic aqueous solution in a dose of 75 mg/kg.body weight. The rats were kept from eating food, and 6 hours after the administration, the blood of each rat was sampled from its heart. The total amount of cholesterol in serum was determined by a modified Zurkowski method (Clinical Chemistry, 10, 451, 1964) with the use of a colorimeter for blood analysis (sold by KYOTO DAIICHI KAGAKU).

[12] = 10.0 mg/kg oral, average ± standard error

SMILES: CC(/C=C/[C@@]1(C)[C@H](C)CCC(=O)[C@@H]1C)=C\Cc1c(O)c(Cl)c(C)c(C=O)c1O [ascochlorin, reference compound]
- LD50 ([1]; ip): 258 mg/kg
- LD50 ([1]; oral): > 7000 mg/kg
- known activities [2]: anti-viral, anti-tumor, anti-bacterial and sedative activities and, further, cholesterol-lowering activity
- increase in body weight [3]: increased only slightly in body weight
- toxicity [4]: strong in toxicity
- Serum Cholesterol, increasing or reducing ratio based on the control ([5]; 10.0 mg/kg oral): -8.8
- Serum Free fatty acid, increasing or reducing ratio based on the control ([5]; 10.0 mg/kg oral): -4.0
- Serum Phospholipid, increasing or reducing ratio based on the control ([5]; 10.0 mg/kg oral): -4.5
- Serum Triglyceride, increasing or reducing ratio based on the control ([5]; 10.0 mg/kg oral): -10.0
- Serum β-Lipoprotein, increasing or reducing ratio based on the control ([5]; 10.0 mg/kg oral): -5.6
- Serum Cholesterol [5, 12]: 97.4 ± 4.8 mg/dL
- Serum Free fatty acid [5, 12]: 48.3±4.7 μ eq./dl
- Serum Phospholipid [5, 12]: 130.1 ± 8.4 mg/dL
- Serum Triglyceride [5, 12]: 72.0 ± 13.2 mg/dL
- Serum β-Lipoprotein [5, 12]: 720 ± 114 mg/dL
- lowering of lipids in serum, liver and aorta (such effects) ([5]; oral, groups of Tables IV and V): such effects were not observed
- Cholesterol in Liver, increasing or reducing ratio based on the control [6]: +6.5
- Cholesterol in Tunica intima of aorta abdominalis, increasing or reducing ratio based on the control [6]: -4.0
- Phospholipid in Liver, increasing or reducing ratio based on the control [6]: -1.0
- Triglyceride in Liver, increasing or reducing ratio based on the control [6]: -7.3
- Cholesterol in Liver ([6]; average ± standard error): 36.2 ± 3.5 mg/g
- Phospholipid in Liver ([6]; average ± standard error): 69.5 ± 4.2 mg/g
- Triglyceride in Liver ([6]; average ± standard error): 20.2 ± 2.5 mg/g
- hypolipidemic activity [7]: inadequate in its hypolipidemic activity
- LD50 ([8]; ip, female): 68 mg/kg
- LD50 ([8]; ip, male): 102 mg/kg
- LD50 ([8]; po, female): > 5000 mg/kg
- LD50 ([8]; po, male): > 5000 mg/kg
- Aggregation Inhibition Ratio [9]: 66.8%
- increase in body weight ([10]; 50 mg/kg): little or no increase in body weight; also recorded: lost weight
- rats died during the test period ([10]; group of 10): three
- Cholesterol in serum [11]: 101.3 mg/dL
